Assay results taken from ChEMBL document CHEMBL4602622, “Serendipitous discovery of aryl boronic acids as β-lactamase inhibitors” (Bioorg Med Chem Lett, 2020).

Assay: Inhibition of Pseudomonas aeruginosa AmpC

IC50 [µM] | Structure (SMILES)
> 100 | O=C(c1nc(-c2ccccc2)cs1)N1CCC(c2ccccn2)C1 (stereo in doubt)
> 100 | C1=NC2(CCc3ccc(-c4ccccc4)cc3C2)CN1 (stereo in doubt)
15 | C1=NC2(CCc3ccc(-c4ccccc4)cc3C2)CN1 (stereo in doubt; 1)
43 | O=C(c1nc(-c2ccccc2)cs1)N1CCC(c2ccccn2)C1 (stereo in doubt; 2)
